For the test, the target named is human BACE-1 (Homo sapiens, UniProt P56817). Put plainly: CEREP BACE Inhibition Assay. In kind it is biochemical. The note with it: for inhibition at 1 µM: read-out: % Inhibition @ 1.0 μM. A digest of the protocol: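 Recombinant human BACE-1 (0.25 μg) was assayed in 0.09 M sodium acetate pH 4.5, with activity followed fluorimetrically as formation of Mca-S-E-V-N-L[…] from peptide substrate. Compound autofluorescence was checked at the detection wavelengths. Basal signal was taken from wells without substrate.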

The mark [1] stands for this setting: 1.0 μM, percent inhibition of the control activity, recombinant enzyme.
Where [2] appears, read: recombinant enzyme, read-out: IC50.
[3] abbreviates: percent inhibition of the control activity, recombinant enzyme.

Molecules are shown by their SMILES. Values joined by “and” are separate entries in the source; they are usually repeats but may differ in a detail not shown here. Equal values may be shown once. Where a name gives a salt, the structure may show the parent alone. Read-outs that look alike come from different tables or passages of the source.

Broadly, the inhibition is the drop in the measured response relative to a control, in per cent. One may read the IC50 as the concentration at which inhibition is half-maximal.

Chain of human BACE-1 (P56817 46-501): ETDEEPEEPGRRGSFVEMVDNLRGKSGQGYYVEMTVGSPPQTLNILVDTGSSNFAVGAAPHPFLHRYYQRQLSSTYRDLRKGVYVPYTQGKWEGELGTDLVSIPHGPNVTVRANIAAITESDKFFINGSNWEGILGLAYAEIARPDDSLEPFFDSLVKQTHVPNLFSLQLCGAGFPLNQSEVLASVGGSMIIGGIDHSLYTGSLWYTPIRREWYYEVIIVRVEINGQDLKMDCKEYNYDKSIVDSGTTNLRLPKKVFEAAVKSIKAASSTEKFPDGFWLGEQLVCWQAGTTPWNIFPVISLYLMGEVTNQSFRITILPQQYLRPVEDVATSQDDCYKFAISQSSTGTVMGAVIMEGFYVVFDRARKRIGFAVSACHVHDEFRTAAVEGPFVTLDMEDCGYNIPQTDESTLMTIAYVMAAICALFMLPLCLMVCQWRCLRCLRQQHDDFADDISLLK

Consider `CC(C)(C)CCNC(=O)C[C@@H](C1CCCCC1)N1Cc2cc(Oc3ccccc3)ncc2N=C1N` [Compound 202, 3-(2-Amino-6-phenoxy-4H-pyrido[3,4-d]pyrimidin-3-yl)-3(S)-cyclohexyl-N-(3,3-dimethyl-butyl)-propionamide hydrochloride salt], for which the “% Inhibition @ 1.0 μM” value (1.0 μM, percent inhibition of the control activity, recombinant enzyme, hydrochloride salt) is reported as 73%. Besides, the inhibition at 1 µM under setting [1] was 88%. In addition, the concentration for half-maximal inhibition (IC50) under setting [2] came to 0.22 µM.
For `CC(C)(C)CNC(=O)CC[C@@H](C1CCCCC1)N1Cc2cc(Oc3ccccc3)ncc2N=C1N` [Compound 204], the inhibition at 1 µM under setting [1] turned out to be 100%. The IC50 under setting [2] was found to be 0.077 µM.
Taken in the same sequence, the figures for `CN(C(=O)C[C@@H](C1CCCCC1)N1Cc2cc(Oc3ccccc3)ncc2N=C1N)C1CCCCC1` [Compound 205] were 81% and 0.29 µM.
With `CN(CC[C@@H](C1CCCCC1)N1Cc2cc(Oc3ccccc3)ncc2N=C1N)C1CCCCC1` [Compound 206], under setting [1], the “% Inhibition @ 1.0 μM” value worked out at 90% and the inhibition at 1 µM stood at 91%. Besides, the half-maximal inhibitory concentration (IC50) under setting [2] is 0.18 µM and 0.12 µM.
As to `CC(C)CNC(=O)CC[C@@H](C1CCCCC1)N1Cc2cc(Oc3ccccc3)ncc2N=C1N` [Compound 208], the inhibition at 1 µM under setting [1] amounted to 98%. Under setting [2], the IC50 was found to be 0.13 µM.
Regarding `CC(C)CN(C)CCC[C@@H](C1CCCCC1)N1Cc2cc(Oc3ccccc3)ncc2N=C1N` [Compound 209], the inhibition at 1 µM under setting [1] worked out at 93%. Moreover, the 50% inhibitory concentration (IC50) under setting [2] was found to be 0.12 µM.
`NC1=Nc2cnc(Oc3ccccc3)cc2CN1[C@@H](CCC(=O)NC[C@H]1CCCO1)C1CCCCC1` [Compound 210]: the inhibition at 1 µM under setting [1] came out at 98%. Besides, the half-inhibitory concentration (IC50) under setting [2] amounted to 0.12 µM.
The matching figures for `NC1=Nc2cnc(Oc3ccccc3)cc2CN1[C@@H](CCCNC[C@H]1CCCO1)C1CCCCC1` [Compound 211]: 88% and 0.16 µM.
Turning to `NC1=Nc2cnc(Oc3ccccc3)cc2CN1[C@@H](CCC(=O)NCC1CC1)C1CCCCC1` [Compound 212], the inhibition at 1 µM under setting [1] was 99%. Besides, under setting [2], the IC50 was 0.076 µM.
Regarding `NC1=Nc2cnc(Oc3ccccc3)cc2CN1[C@@H](CCCNCC1CC1)C1CCCCC1` [Compound 213], the inhibition at 1 µM under setting [1] came to 88%. Further, the 50% inhibitory concentration (IC50) under setting [2] came to 0.24 µM.
In the case of `CC(C)(C)CNCC[C@@H](C1CCCCC1)N1Cc2cc(Oc3ccccc3)ncc2N=C1N` [Compound 214], under setting [1], the “% Inhibition @ 1.0 μM” value amounted to 53% and the inhibition at 1 µM is 57%. Also, the IC50 under setting [2] was 0.93 µM and 1 µM.
Turning to `CC(C)(C)CCNCC[C@@H](C1CCCCC1)N1Cc2cc(Oc3ccccc3)ncc2N=C1N` [Compound 216], under setting [1], the “% Inhibition @ 1.0 μM” value was determined as 95% and the inhibition at 1 µM turned out to be 96%. Moreover, the IC50 under setting [2] is 0.087 µM and 0.12 µM.
As to `CC(C)(C)CNC(=O)CC[C@@H](CC1CCOCC1)N1Cc2cc(Oc3ccccc3)ncc2N=C1N` [Compound 219], the inhibition at 1 µM under setting [1] came out at 64%. Moreover, under setting [2], the 50% inhibitory concentration (IC50) amounted to 0.64 µM.
As for `CC(C)[C@H](C(=O)N(C)CCc1ccccc1)N1Cc2cc(Oc3ccccc3)ncc2N=C1N` [Compound 221, 2-(2-Amino-6-phenoxy-4H-pyrido[3,4-d]pyrimidin-3-yl)-3,N-dimethyl-N-phenethyl-butyramide hydrochloride salt (R enantiomer)], the inhibition at 1 µM under setting [1] was determined as 52%. Also, under setting [2], the 50% inhibitory concentration (IC50) was determined as 0.98 µM.
As for `CC(C)(C)OC[C@@H](NC(=O)CC[C@@H](C1CCCCC1)N1Cc2cc(Oc3ccccc3)ncc2N=C1N)C(=O)N[C@@H](CCC(=O)O)C(=O)O` [Compound 224], the inhibition at 1 µM under setting [1] was 100%. Also, the IC50 under setting [2] came out at 0.082 µM.
As for `CC(C)(C)OC[C@@H](NC(=O)CC[C@@H](C1CCCCC1)N1Cc2cc(Oc3ccccc3)ncc2N=C1N)C(=O)N[C@@H](CCC(=O)O)C(=O)O` [Compound 225], the “% Inhibition @ 1.0 μM” value under setting [1] was 96%. Under setting [2], the 50% inhibitory concentration (IC50) is 0.11 µM.
As to `NC1=Nc2cnc(Oc3ccccc3)cc2CN1[C@@H](CN1C(=O)NC2(CCCCC2)C1=O)C1CCCCC1` [Compound 229, 3-[2-(2-Amino-6-phenoxy-4H-pyrido[3,4-d]pyrimidin-3-yl)-2-(R)-cyclohexyl-ethyl]-1,3-diaza-spiro[4.5]decane-2,4-dione], the inhibition at 1 µM under setting [1] came to 78%. Besides, the IC50 under setting [2] came to 0.39 µM.
`CC(C)[C@H](CCC(=O)OCc1ccccc1)N1Cc2cc(Oc3ccccc3)ncc2N=C1N` [Compound 231, 4-(2-Amino-6-phenoxy-4H-pyrido[3,4-d]pyrimidin-3-yl)-5-methyl-hexanoic acid benzyl ester]: under setting [1], the inhibition at 1 µM was found to be 97%. The IC50 under setting [2] was 0.13 µM.
The matching figures for `CC(C)[C@H](COCCC1CCCCC1)N1Cc2cc(Oc3ccccc3)ncc2N=C1N` [Compound 232, 3-[1-(2-cyclohexyl-ethoxymethyl)-(R)-(2-methyl-propyl)]-6-phenoxy-3,4-dihydro-pyrido[3,4-d]pyrimidin-2-ylamine]: 99% and 0.11 µM.
In the case of `CC(C)=CCOC[C@@H](C(C)C)N1Cc2cc(Oc3ccccc3)ncc2N=C1N` [Compound 233, 3-[2-Methyl-1-(3-methyl-but-2-enyloxymethyl)-propyl]-6-phenoxy-3,4-dihydro-pyrido[3,4-d]pyrimidin-2-ylamine], under setting [1], the inhibition at 1 µM was determined as 52%. For the same compound, under setting [2], the IC50 stood at 0.88 µM.
The matching figures for `CC(C)[C@H](COCC1CCCCC1)N1Cc2cc(Oc3ccccc3)ncc2N=C1N` [Compound 234]: 94% and 0.18 µM.
For the compound `CC(C)C(COCC1CC(C2CCCCC2)=NO1)N1Cc2cc(Oc3ccccc3)ncc2N=C1N` (centres unmarked) [Compound 235], the inhibition at 1 µM turned out to be 59%. For the same compound, for the setting “IC50 (μM), recombinant enzyme”, the 50% inhibitory concentration (IC50) came out at 0.61 µM.
For `CC(C)[C@H](COCC1CC(C(C)(C)C)=NO1)N1Cc2cc(Oc3ccccc3)ncc2N=C1N` (some centres unmarked) [Compound 236, 3-[1-(3-tert-Butyl-4,5-dihydro-isoxazol-5-ylmethoxymethyl)-2-methyl-propyl]-6-phenoxy-3,4-dihydro-pyrido[3,4-d]pyrimidin-2-ylamine], the inhibition at 1 µM under setting [1] was 92%. Further, the IC50 under setting [2] worked out at 0.18 µM.
The matching figures for `CC(C)[C@H](COCc1cc(C(C)(C)C)no1)N1Cc2cc(Oc3ccccc3)ncc2N=C1N` [Compound 237]: 87% and 0.27 µM.
As for `CC(C)C(COCC1CC(CC(C)(C)C)=NO1)N1Cc2cc(Oc3ccccc3)ncc2N=C1N` (centres unmarked) [Compound 238], the inhibition at 1 µM under setting [1] amounted to 72%. The concentration for half-maximal inhibition (IC50) under setting [2] came out at 0.54 µM.
For `CC(C)(C)c1cn(C[C@@H](C2CCCCC2)N2Cc3cc(Oc4ccccc4)ncc3N=C2NN)nn1` [Compound 245, {3-[2-(4-tert-Butyl-[1,2,3]triazol-1-yl)-1-(R)-cyclohexyl-ethyl]-6-phenoxy-3,4-dihydro-pyrido[3,4-d]pyrimidin-2-yl}-hydrazine], under setting [3], the inhibition at 10 µM was 29%.
As to `CC(C)(C)c1cn(C[C@@H](C2CCCCC2)N2Cc3cc(Oc4ccccc4)ncc3N=C2NO)nn1` [Compound 246, N-{3-[2-(4-tert-Butyl-[1,2,3]triazol-1-yl)-1-(R)-cyclohexyl-ethyl]-6-phenoxy-3,4-dihydro-pyrido[3,4-d]pyrimidin-2-yl}-hydroxylamine], under setting [3], the inhibition at 10 µM was 94%.

The values are drawn from patent US7531545B2, “2-amino-3,4-dihydro-pyrido[3,4-d]pyrimidine derivatives useful as inhibitors of β-secretase (BACE)” (Janssen Pharmaceutica, N.V., priority 2005, dated 2009).
